Experimental data published in patent publication US5225411A, “Disubstituted polymethyleneimines” (priority 1990, dated 1993).
Several values for one entry are separate records, joined by “and”; a condition that tells them apart may be missing. Equal values may be shown once. Read-outs that look alike come from different tables or passages of the source.

Experiments:
[1] = test system: murine leukaemia P 388/ADR 10; test: Evaluation of the increase in cytotoxicity of adriamycin on the line P 388/ADR-10 in vitro (reversion factor); format: cell-based; conditions: for Reversion Factor (RF): adriamycin, P 388/ADR-10, 48 h, TOX = toxic
Description: In this study, the cytotoxicity of adriamycin was measured in the absence and in the presence of the reversing compound.
The compounds tested for their capacity to reverse MDR are added at the same time as the cytotoxic agent. The cells are then incubated for 48 hours.

[2] = test system: Chinese Hamster Pulmonary Line DC-3F/AD; test: Increase in the cytotoxicity of actinomycin D on the Chinese hamster pulmonary line DC-3F/AD; format: cell-based; conditions: 4 days;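 also: DC-3F/AD is an extremely resistant cell line whose resistance factor exceeds 10,000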
Description: The cytotoxic agent used was actinomycin D.
Line DC-3F/AD is an extremely resistant line. Its resistance factor is higher than 10,000.

line DC-3F/AD = test: Flow cytometry, increase in fluorescence of ADR on the line DC-3F/AD; format: cell-based, Chinese Hamster; conditions: ADR 50 μM, 5 h
line P 388/ADR 10 = test: Flow cytometry, increase in fluorescence of ADR on the line P 388/ADR 10; format: cell-based, murine; conditions: ADR 50 μM, 5 h
[3] = in vivo; cited from earlier work
[4] = test system: murine leukaemia P388/ADR
Description: D) In Vivo Reversion of the Acquired Resistance to Medicaments
10^6 cells are implanted by the intraperitoneal route into female B6 D2 F1 mice on day 0 and treatment commences the following day in accordance with the administration schemes indicated.
The parameter measured is the survival time, allowing the calculation of T/C: [formula]
The variation in weight is calculaed; it provides information on the toxicity of the treatment. The control groups comprise from 15 to 27 animals and the treated groups from 5 to 10 animals.
Six independent experiments were carried out. The assays were performed over 4 days in accordance with the scheme D1-4 the tumour cells being implanted on DO and the reversing agent and the cytotoxic agnet being administered on D1, D2, D3, and D4.

[5] = test system: murine leukaemia P 388/ADR 10; test: Evaluation of the increase in cytotoxicity of adriamycin on the line P 388/ADR-10 in vitro (reversion factor); format: cell-based; conditions: P 388/ADR 10, resistance induced by adriamycin
[6] = Example 1 50 mg/kg + ADR 2 mg/kg, i.p., D1-4, n=2
[7] = Example 1 50 mg/kg + ADR 4 mg/kg, i.p., D1-4, n=2
[8] = Example 1 50 mg/kg alone, i.p., D1-4, n=2
[9] = Example 1 100 mg/kg + ADR 2 mg/kg, i.p., D1-4, n=2
[10] = Example 1 100 mg/kg + ADR 4 mg/kg, i.p., D1-4, n=6
[11] = Example 1 100 mg/kg alone, i.p., D1-4, n=6
[12] = Example 1 200 mg/kg + ADR 2 mg/kg, i.p., D1-4, n=4
[13] = Example 1 200 mg/kg alone, i.p., D1-4, n=4
[14] = ADR 2 mg/kg alone, i.p., D1-4, n=2
[15] = ADR 4 mg/kg alone, i.p., D1-4, n=6

## COC(=O)[C@H]1[C@H]2C[C@@H]3c4[nH]c5cc(OC)ccc5c4CCN3C[C@H]2C[C@@H](OC(=O)c2cc(OC)c(OC)c(OC)c2)[C@@H]1OC [RESERPINE]
[1]; P 388/ADR-10, adriamycin
  activity in reversing resistance in vitro: very good activity in vitro
[1]; compound 5 μM
  Reversion Factor (RF): 215.5
[1]; compound 10 μM
  Reversion Factor (RF): 189
[2]; compound 2.5 μM
  Reversion Factor (RF): 258
[2]; compound 5 μM
  Reversion Factor (RF): 1085
[2]; compound 10 μM
  Reversion Factor (RF): 1649
[2]; compound 20 μM
  Reversion Factor (RF): 2024
Line DC-3F/AD; compound 2 μM
  Increase in fluorescence of ADR (VAR-MEAN = MN2 - MN1): 26.18
Line DC-3F/AD; compound 5 μM
  Increase in fluorescence of ADR (VAR-MEAN = MN2 - MN1): 29.43
Line DC-3F/AD; compound 10 μM
  Increase in fluorescence of ADR (VAR-MEAN = MN2 - MN1): 31.73
Line DC-3F/AD; compound 20 μM
  Increase in fluorescence of ADR (VAR-MEAN = MN2 - MN1): 29.95
Line P 388/ADR 10; compound 2 μM
  Increase in fluorescence of ADR (VAR-MEAN = MN2 - MN1): 73.46
Line P 388/ADR 10; compound 5 μM
  Increase in fluorescence of ADR (VAR-MEAN = MN2 - MN1): 80.48
Line P 388/ADR 10; compound 10 μM
  Increase in fluorescence of ADR (VAR-MEAN = MN2 - MN1): 91.90
Line P 388/ADR 10; compound 20 μM
  Increase in fluorescence of ADR (VAR-MEAN = MN2 - MN1): 85.39
[3]
  toxicity: high degree of toxicity

## C=CCNc1nc(NCC=C)nc(N2CCC(NCC(c3ccc(F)cc3)c3ccc(F)cc3)CC2)n1 [Example 1, 1-[4,6-bis(allylamino)-2-s-triazinyl]-4-[2,2-bis(p-fluorophenyl)ethylamino]piperidine]
[1]; compound 2.5 μM
  Reversion Factor (RF): 110.8
[1]; compound 5 μM
  Reversion Factor (RF): 244.4
[1]; compound 10 μM
  Reversion Factor (RF): 170.7
[2]; compound 2.5 μM
  Reversion Factor (RF): 171
[2]; compound 5 μM
  Reversion Factor (RF): 905
[2]; compound 10 μM
  Reversion Factor (RF): 2575
[2]; compound 20 μM
  Reversion Factor (RF): TOX
Line DC-3F/AD; compound 2 μM
  Increase in fluorescence of ADR (VAR-MEAN = MN2 - MN1): 18.27
Line DC-3F/AD; compound 5 μM
  Increase in fluorescence of ADR (VAR-MEAN = MN2 - MN1): 26.13
Line DC-3F/AD; compound 10 μM
  Increase in fluorescence of ADR (VAR-MEAN = MN2 - MN1): 35.57
Line DC-3F/AD; compound 20 μM
  Increase in fluorescence of ADR (VAR-MEAN = MN2 - MN1): 43.63
Line P 388/ADR 10; compound 2 μM
  Increase in fluorescence of ADR (VAR-MEAN = MN2 - MN1): 53.1
Line P 388/ADR 10; compound 5 μM
  Increase in fluorescence of ADR (VAR-MEAN = MN2 - MN1): 74.1
Line P 388/ADR 10; compound 10 μM
  Increase in fluorescence of ADR (VAR-MEAN = MN2 - MN1): 85.49
Line P 388/ADR 10; compound 20 μM
  Increase in fluorescence of ADR (VAR-MEAN = MN2 - MN1): 78.5
[4]; [6]
  T/C, extreme values: 120-141.7%
  T/C, mean ± s.e.m.: 130.9%
  T/C, median: 130.9%
[4]; [7]
  T/C, extreme values: 116.7-140%
  T/C, mean ± s.e.m.: 128.4%
  T/C, median: 128.4%
[4]; [8]
  T/C, extreme values: 90-108.3%
  T/C, mean ± s.e.m.: 99.2%
  T/C, median: 99.2%
[4]; [9]
  T/C, extreme values: 116.7-140%
  T/C, mean ± s.e.m.: 128.4%
  T/C, median: 128.4%
[4]; [10]
  T/C, extreme values: 120-150%
  T/C, mean ± s.e.m.: 134.2 ± 4.4%
  T/C, median: 134.2%
[4]; [11]
  T/C, extreme values: 85-100%
  T/C, mean ± s.e.m.: 91.7 ± 2.8%
  T/C, median: 90%
[4]; Example 1 200 mg/kg + ADR 2 mg/kg, i.p.
  increase in activity as a result of the compound of Example 1: 30.6%
[4]; [12]
  T/C, extreme values: 140-155.6%
  T/C, mean ± s.e.m.: 148.9% and 148.9 ± 3.2%
  T/C, median: 150%
[4]; Example 1 200 mg/kg + ADR 2 mg/kg, T/C ≥ 135% good activity
  activity: good activity
[4]; [13]
  T/C, extreme values: 80-88.9%
  T/C, mean ± s.e.m.: 83.5 ± 2.2%
  T/C, median: 82.5%
[4]; Example 1 alone, 200 mg/kg, i.p., T/C ≤ 85% toxic
  toxicity: only moderately toxic
[4]; Example 1 alone, 50 to 200 mg/kg, i.p.
  antitumour activity: does not possess any antitumour activity
[4]; Example 1 at 50 and 100 mg/kg (Table V: with ADR), T/C ≥ 120% moderate activity
  activity: modest activity

## COc1cccc2c1C(=O)c1c(O)c3c(c(O)c1C2=O)C[C@@](O)(C(=O)CO)C[C@@H]3O[C@H]1C[C@H](N)[C@H](O)[C@H](C)O1 [ADR, adriamycin, reference compound]
[5]
  factor of resistance in relation to the sensitive line: 260
[4]; [14]
  T/C, extreme values: 116.7-120%
  T/C, mean ± s.e.m.: 118.3%
  T/C, median: 118.3%
[4]; [15]
  T/C, extreme values: 105-130%
  T/C, mean ± s.e.m.: 115.1 ± 3.9%
  T/C, median: 112.5%
[4]; ADR alone, P388/ADR
  antitumour activity: not exhibiting any antitumour activity
[4]; ADR alone, i.p.
  T/C: < 120%
